# In publication PMC10820527, “Synthesis, Characterization, and Investigation of Anti-Inflammatory and Cytotoxic Activities of Novel Thiourea Derivatives of Naproxen” (Pharmaceutics, 2023):
# Like-named read-outs stand apart in the source and are kept apart here.
# Legend:
# [1] = system: MRC-5 fibroblast cell line; test: MTT cytotoxicity assay, MRC-5; type: cell-based; conditions: for IC50: mean ± SD
# Protocol: (§1) Three cancer cell lines (MDA-MB-231, HCT116 and HeLa; i.e., human breast cancer cells, human colorectal cancer cells, and human cervical cancer cells, respectively), and one non-malignant fibroblast MRC-5 cell line (control) were used in this study. The American Type Cell Collection (ATCC, Manassas, VA, USA) provided all examined cell lines. The cells were grown in a complete medium made up of high-glucose DMEM media supplemented with 10% fetal bovine serum and […] L-glutamine (both from Sigma-Aldrich, USA). The cells were cultured in 25 cc flasks (Thermo Fischer Scientific, Waltham, MA, USA) at 37 °C with 100% humidity in a 5% CO2 atmosphere.
# (§2) The MTT test was used to assess the cytotoxicity of compounds 1–14 [44]. The cytotoxicity of naproxen was also investigated due to its clinical use and structural similarity. Throughout the exponential development period, cells were taken from culture flasks and counted, and 5 × 10^3 cells/well were planted into 96-well culture plates. Following that, the cell lines were treated with varying doses of the investigated chemicals (1–14), naproxen ([…]), and fresh complete media as a control. All evaluated cells were incubated for 24, 48, and 72 h at 37 °C in an environment containing 5% CO2 and 100% humidity. Following incubation, each well’s culture media was taken out, each well received an addition of MTT solution at a final concentration of 0.5 mg/mL, and the cells were left to incubate for an additional four hours. The MTT solution was then withdrawn carefully, and the formazan crystals were dissolved in DMSO. After shaking the plates for 10 min, absorbance at 595 nm was measured using a multiplate reader (Zenyth 3100, Anthos Labtec Instruments, Salzburg, Austria). All concentrations of the tested compounds were performed in three separate wells of the microtiter plates and in three separate experiments. The results were reported as a ratio to the control value, untreated cells. IC50 values were also determined using Microsoft Office Excel 2021. The percentage of viable cells was estimated by dividing the readout absorbance value in the wells containing treated cells by the average absorbance value measured in the wells containing untreated cells, and multiplying the result by 100 [44]. % of the viable cells = ((absorbance of treated cell-absorbance of blank)/(absorbance of untreated cell-absorbance of blank)) × 100(3)
# HeLa = test: MTT cytotoxicity assay, HeLa; type: cell-based, human; conditions: mean ± SD
# Protocol: as §1, §2
# MDA-MB-231 = test: MTT cytotoxicity assay, MDA-MB-231; type: cell-based, human; conditions: mean ± SD
# Protocol: as §1, §2
# HCT 116 = test: MTT cytotoxicity assay, HCT 116; type: cell-based, human; conditions: for IC50: mean ± SD
# Protocol: as §1, §2
# [2] = system: carrageenan-induced rat paw edema; test: Carrageenan-induced rat paw edema model; type: in vivo; conditions: for Rat Paw Thickness: mean ± SD; for inhibition in vivo at 2.5 mg/kg / inhibition in vivo at 5 mg/kg / inhibition in vivo at 10 mg/kg: Rattus norvegicus
# Protocol: The Carrageenan-induced rat paw edema model was used to assess the anti-inflammatory potential of novel compounds 8–14. Induction of inflammation was performed in all animals by intraplantar injection of […] 0.5% carrageenan saline into the left hind paw.
# Animals (n = 200) were randomly divided into the following groups: control groups, that received either 1% DMSO or naproxen, and experimental groups, that received the novel compounds 8–14.
# Control groups included DMSO and naproxen groups. Rats belonging to the DMSO group received 1% DMSO in the same volume as the compounds 8–14, 60 min before carrageenan injection. Moreover, naproxen groups included rats that were subjected to naproxen treatment in three doses: 2.5 mg/kg, 5 mg/kg, and 10 mg/kg. Naproxen was applied in the same manner as 1% DMSO.
# Experimental groups included rats that were treated with compounds 8–14 and they were divided into three subgroups depending on the applied dose: 2.5 mg/kg, 5 mg/kg, and 10 mg/kg. The examined compounds were dissolved in 1% DMSO prior to treatment and applied to rats 60 min before inducing inflammation, i.e., before carrageenan injection. Doses of naproxen and investigated compounds were defined based on our previously published research.
# In order to quantify the anti-inflammatory effects of the tested compounds, left paw thickness was measured at specific time points: prior to inflammation induction (moment 0) and 1, 2, 3, and 4 h (moments 1, 2, 3, and 4) following carrageenan injection. Tissue thickness was measured in the middle of the rat paw using a Digital Vernier caliper (Aerospace, China). The percentage of inhibition of paw edema after treatment with different agents was calculated according to the formula, Equation (2):% Inhibition = 100 × [1 − (Yt/Yc)](2) where Yt = average increase in paw thickness in the treated group of rats between two measurement moments, and Yc = average increase in paw thickness in the untreated group of rats between two measurement moments.
# 5-LOX = biological target: T1, 5-LOX (Homo sapiens, UniProt P09917); parameters: method as in PMID 37242450; conditions: among compounds 1–5, previously published study ref 37; cited from earlier work
# T1 construct: purchased Abcam
# T1 sequence (P09917 1-674): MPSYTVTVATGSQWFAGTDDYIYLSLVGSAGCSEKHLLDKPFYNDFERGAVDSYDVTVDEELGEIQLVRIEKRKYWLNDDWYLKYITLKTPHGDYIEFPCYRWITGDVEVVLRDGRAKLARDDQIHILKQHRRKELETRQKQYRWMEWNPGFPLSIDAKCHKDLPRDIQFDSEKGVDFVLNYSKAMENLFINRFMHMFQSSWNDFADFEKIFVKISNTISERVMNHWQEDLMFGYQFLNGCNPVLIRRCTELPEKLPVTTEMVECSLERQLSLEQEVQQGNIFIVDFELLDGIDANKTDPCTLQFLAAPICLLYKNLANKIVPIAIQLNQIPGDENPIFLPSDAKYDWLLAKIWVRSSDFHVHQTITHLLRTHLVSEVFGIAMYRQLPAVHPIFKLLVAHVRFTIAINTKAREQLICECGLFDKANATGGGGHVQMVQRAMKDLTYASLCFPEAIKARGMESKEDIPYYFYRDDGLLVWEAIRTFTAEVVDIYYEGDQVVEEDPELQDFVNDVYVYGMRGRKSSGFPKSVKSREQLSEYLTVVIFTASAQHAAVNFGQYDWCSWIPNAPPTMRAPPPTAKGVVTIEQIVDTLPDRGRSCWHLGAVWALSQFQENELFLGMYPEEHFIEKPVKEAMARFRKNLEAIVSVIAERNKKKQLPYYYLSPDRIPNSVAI
# [3] = system: MCF-7, MDA-MB-231, HeLa, and HCT-116; conditions: cited from earlier work
# [4] = read-out: IC50 (cytotoxic activity of reference drugs), range over MCF-7, MDA-MB-231, HeLa, and HCT-116
compound,measurement,setting,value
"COc1ccc2cc([C@H](C)C(=O)O)ccc2c1 [Naproxen, naproxen]",Effect on the viability of the MRC-5 fibroblast cell line (in words),[1],insignificant effect
same,IC50,"[1]; Homo sapiens, MRC5, 24 h",> 200 µM
same,IC50,"[1]; Homo sapiens, MRC5, 48 h",> 200 µM
same,IC50,"[1]; Homo sapiens, MRC5, 72 h",> 200 µM
same,IC50,"HeLa; Homo sapiens, HeLa, 24 h",> 200 µM
same,IC50,"HeLa; Homo sapiens, HeLa, 48 h",> 200 µM
same,IC50,"HeLa; Homo sapiens, HeLa, 72 h",> 200 µM
same,IC50,"MDA-MB-231; Homo sapiens, MDA-MB-231, 24 h, 24 h",> 200 µM
same,IC50,"MDA-MB-231; Homo sapiens, MDA-MB-231, 48 h, 48 h",> 200 µM
same,IC50,"MDA-MB-231; Homo sapiens, MDA-MB-231, 72 h, 72 h",> 200 µM
same,IC50,"HCT 116; Homo sapiens, HCT-116, 24 h",> 200 µM
same,IC50,"HCT 116; Homo sapiens, HCT-116, 48 h",> 200 µM
same,IC50,"HCT 116; Homo sapiens, HCT-116, 72 h",> 200 µM
same,Rat Paw Thickness,"[2]; 2.5 mg/kg, 1 h after carrageenan",6.35 ± 0.15 mm
same,Rat Paw Thickness,"[2]; 2.5 mg/kg, 2 h after carrageenan",6.02 ± 0.15 mm
same,Rat Paw Thickness,"[2]; 2.5 mg/kg, 3 h after carrageenan",5.75 ± 0.20 mm
same,Rat Paw Thickness,"[2]; 2.5 mg/kg, 4 h after carrageenan",5.18 ± 0.20 mm
same,Rat Paw Thickness,"[2]; 5.0 mg/kg, 1 h after carrageenan",6.02 ± 0.20 mm
same,Rat Paw Thickness,"[2]; 5.0 mg/kg, 2 h after carrageenan",5.52 ± 0.30 mm
same,Rat Paw Thickness,"[2]; 5.0 mg/kg, 3 h after carrageenan",5.22 ± 0.30 mm
same,Rat Paw Thickness,"[2]; 5.0 mg/kg, 4 h after carrageenan",4.98 ± 0.24 mm
same,Rat Paw Thickness,"[2]; 10.0 mg/kg, 1 h after carrageenan",5.88 ± 0.23 mm
same,Rat Paw Thickness,"[2]; 10.0 mg/kg, 2 h after carrageenan",5.55 ± 0.45 mm
same,Rat Paw Thickness,"[2]; 10.0 mg/kg, 3 h after carrageenan",5.35 ± 0.32 mm
same,Rat Paw Thickness,"[2]; 10.0 mg/kg, 4 h after carrageenan",4.95 ± 0.35 mm
same,inhibition in vivo at 2.5 mg/kg,"[2]; 2.5 mg/kg, 1 h",19.7%
same,inhibition in vivo at 2.5 mg/kg,"[2]; 2.5 mg/kg, 2 h",25.8%
same,inhibition in vivo at 2.5 mg/kg,"[2]; 2.5 mg/kg, 3 h",26.1%
same,inhibition in vivo at 2.5 mg/kg,"[2]; 2.5 mg/kg, 4 h",46.7%
same,inhibition in vivo at 5 mg/kg,"[2]; 5.0 mg/kg, 1 h",27.9%
same,inhibition in vivo at 5 mg/kg,"[2]; 5.0 mg/kg, 2 h",42.4%
same,inhibition in vivo at 5 mg/kg,"[2]; 5.0 mg/kg, 3 h",47.7%
same,inhibition in vivo at 5 mg/kg,"[2]; 5.0 mg/kg, 4 h",51.1%
same,inhibition in vivo at 10 mg/kg,"[2]; 10.0 mg/kg, 1 h",36.1%
same,inhibition in vivo at 10 mg/kg,"[2]; 10.0 mg/kg, 2 h",43.9%
same,inhibition in vivo at 10 mg/kg,"[2]; 10.0 mg/kg, 3 h",45.9%
same,inhibition in vivo at 10 mg/kg,"[2]; 10.0 mg/kg, 4 h",57.8%
COc1cccc(NC(=S)NC(=O)[C@@H](C)c2ccc3cc(OC)ccc3c2)c1 [Compound 4],IC50,[1]; 24 h,> 200 µM
same,IC50,[1]; 48 h,> 200 µM
same,IC50,[1]; 72 h,> 200 µM
same,IC50,HeLa; 24 h,> 200 µM
same,IC50,HeLa; 48 h,101 ± 12.2 µM
same,IC50,HeLa; 72 h,90.8 ± 8.3 µM
same,5-LOX inhibition (in words),5-LOX,strongest 5-LOX inhibition
same,IC50,MDA-MB-231; 24 h,> 200 µM
same,IC50,MDA-MB-231; 48 h,> 200 µM
same,IC50,MDA-MB-231; 72 h,110 ± 12.9 µM
same,Cytotoxic effect against the HCT 116 cell line (in words),HCT 116,moderate cytotoxic effects
same,IC50,HCT 116; 48 h,106 ± 12.9 µM
same,IC50,HCT 116; 72 h,71.6 ± 9.9 µM
COc1cccc2c1C(=O)c1c(O)c3c(c(O)c1C2=O)C[C@@](O)(C(=O)CO)C[C@@H]3O[C@H]1C[C@H](N)[C@H](O)[C@H](C)O1 [doxorubicin],IC50,[3]; [4],3.18 to 26.8 µM
Cc1ccc(-c2cc(C(F)(F)F)nn2-c2ccc(S(N)(=O)=O)cc2)cc1 [celecoxib],IC50,[3]; [4],22.8 to 42.7 µM
CN(C)C/C=C/C(=O)Nc1cc2c(Nc3ccc(F)c(Cl)c3)ncnc2cc1O[C@H]1CCOC1 [afatinib],IC50,[3],6.2 to 11.4 µM
